Source: the supplement of paper PMC11061612

What was measured:
[1] = test system: TGW (Neuroblastoma); assay: combination Emax (second highest fraction inhibited in the dose matrix, 72 h); higher = more inhibition; extreme values may be limits of the assay
Outline: (§1)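 Bliss excess equals the observed combination effect minus the expected value EA + EB − EA·EB, where EA and EB are the effects of each agent alone. Combination Emax is the second-highest inhibition within the matrix. Inhibition was scaled from CellTiter-Glo 2.0 luminescence, with 0 set by vehicle wells and 1 by blank wells, after 72 hours of two-drug dosing of cells plated in 1536-well plates.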

[2] = test system: PANC-04-03 (Pancreatic Carcinoma); assay: as above
Outline: as §1

[3] = test system: OVCAR-4 (Ovarian Carcinoma); assay: as above
Outline: as §1

[4] = test system: HGC-27 (Gastric Carcinoma); assay: as above
Outline: as §1

[5] = test system: SU8686 (Pancreatic Carcinoma); assay: as above
Outline: as §1

[6] = test system: NB69 (Neuroblastoma); assay: as above
Outline: as §1

[7] = test system: D-263MG (Glioblastoma); assay: as above
Outline: as §1

[8] = test system: Caov-4 (Ovarian Carcinoma); assay: as above
Outline: as §1

[9] = test system: HOP-62 (Lung Adenocarcinoma); assay: as above
Outline: as §1

[10] = test system: OE19 (Esophageal Adenocarcinoma); assay: as above
Outline: as §1

[11] = test system: Ca9-22 (Head and Neck Carcinoma); assay: as above
Outline: as §1

[12] = test system: OSC-20 (Oral Cavity Carcinoma); assay: as above
Outline: as §1

[13] = test system: BT-549 (Breast Carcinoma); assay: as above
Outline: as §1

[14] = test system: TK10 (Kidney Carcinoma); assay: as above
Outline: as §1

[15] = test system: MLMA (Other Blood Carcinomas); assay: as above
Outline: as §1

[16] = test system: MIA-PaCa-2 (Pancreatic Carcinoma); assay: as above
Outline: as §1

[17] = test system: EFM-19 (Breast Carcinoma); assay: as above
Outline: as §1

[18] = test system: NCI-H727 (Other Solid Carcinomas); assay: as above
Outline: as §1

[19] = test system: YH-13 (Glioblastoma); assay: as above
Outline: as §1

[20] = test system: OSC-20 (Oral Cavity Carcinoma); assay: Bliss excess, mean over the matrix (fraction); higher = more synergy
Outline: as §1

Structure (SMILES)	combination Emax [1]	combination Emax [2]	combination Emax [3]	combination Emax [4]	combination Emax [5]	combination Emax [6]	combination Emax [7]	combination Emax [8]	combination Emax [9]	combination Emax [10]	combination Emax [11]	combination Emax [12]	combination Emax [13]	combination Emax [14]	combination Emax [15]	combination Emax [16]	combination Emax [17]	combination Emax [18]	combination Emax [19]	Bliss excess [20]
COc1nnc2ccc(N3CCC(c4ccc(OCCN5CCN(C)C(=O)[C@H]5C)cc4)CC3)nn12 [AZD5153] + C=CCn1c(=O)c2cnc(Nc3ccc(N4CCN(C)CC4)cc3)nc2n1-c1cccc(C(C)(C)O)n1 [AZD1775] (first compound max 1 µM, partner max 1 µM)	0.674	0.484	0.583	0.839	0.171	0.99	0.34	0.864	0.631	0.539	0.672	0.284	0.732	0.604	0.938	0.882	0.573	0.431	0.592	0.0068
Cn1cnc2c(F)c(Nc3ccc(Br)cc3Cl)c(C(=O)NOCCO)cc21 [Selumetinib] + CCN(CCO)CCCOc1ccc2c(Nc3cc(CC(=O)Nc4cccc(F)c4)[nH]n3)ncnc2c1 [AZD2811] (first compound max 10 µM, 7x7, partner max 1 µM)	0.0777	0.479	0.268	0.71	0.142	0.921	0.284	0.551	0.475	0.796	0.475	0.343	0.3	0.327	0.286	0.657	0.219	0.622	0.429	-0.0115
COc1cccc2c1C(=O)c1c(O)c3c(c(O)c1C2=O)C[C@@](O)(C(=O)CO)C[C@@H]3O[C@H]1C[C@H](N)[C@H](O)[C@H](C)O1 [Doxorubicin] + Cc1cc2ncnn2cc1Nc1ncc2c(n1)n(C1CCOCC1)c(=O)n2C [AZD7648] (first compound max 1 µM, 7x7, partner max 10 µM)	0.497	0.278	0.451	0.928	0.203	0.91	0.789	0.913	0.619	0.514	0.831	0.563	0.441	0.773	0.893	0.949	0.437	0.147	0.754	0.0204
COc1cccc(OCCCN)c1-c1cc(Nc2cnc(C#N)cn2)n[nH]1 [Prexasertib] + O=C(c1cc(Cc2n[nH]c(=O)c3ccccc23)ccc1F)N1CCN(C(=O)C2CC2)CC1 [Olaparib] (first compound max 1 µM, 7x7, partner max 10 µM)	0.915	0.49	0.743	0.91	0.527	0.896	0.762	0.976	0.606	0.648	0.991	0.648	0.654	0.625	0.954	0.797	0.354	0.389	0.804	-0.013
CC1(C)CCC(CN2CCN(c3ccc(C(=O)NS(=O)(=O)c4ccc(NCC5CCOCC5)c([N+](=O)[O-])c4)c(Oc4cnc5[nH]ccc5c4)c3)CC2)=C(c2ccc(Cl)cc2)C1 [Venetoclax] + Cc1cc2ncnn2cc1Nc1ncc2c(n1)n(C1CCOCC1)c(=O)n2C [AZD7648] (first compound max 1 µM, 7x7, partner max 10 µM)	0.393	0.286	0.19	0.485	0.152	0.523	0.179	0.263	0.172	0.281	0.128	0.205	0.258	0.281	0.86	0.269	0.417	0.25	0.3	-0.0062
C=CCn1c(=O)c2cnc(Nc3ccc(N4CCN(C)CC4)cc3)nc2n1-c1cccc(C(C)(C)O)n1 [AZD1775] + O=C(c1cc(Cc2n[nH]c(=O)c3ccccc23)ccc1F)N1CCN(C(=O)C2CC2)CC1 [Olaparib] (first compound max 1 µM, partner max 10 µM)	0.821	0.495	0.472	0.799	0.182	0.893	0.447	0.779	0.274	0.301	0.88	0.289	0.551	0.455	0.882	0.737	0.639	0.368	0.428	-0.0205
Cc1c2c(nn1C)CSCc1cc(n(C)n1)CSc1cc(c3ccccc3c1)OCCCc1c(C(=O)O)n(C)c3c-2c(Cl)ccc13 [AZD5991] + CN(C)CCCOc1ccc(-c2ccc3ncc4c(c3c2)n(C2CCOCC2)c(=O)n4C)cn1 [AZD0156] (first compound max 1 µM, 7x7, partner max 1 µM)	0.293	0.24	0.279	0.51	0.16	0.666	0.711	0.511	0.473	0.573	0.256	0.256	0.334	0.272	0.397	0.289	0.494	0.289	0.254	0.0236
CN(CCO)CC[C@H](CSc1ccccc1)Nc1ccc(S(=O)(=O)NC(=O)c2ccc(N3CCC([C@@H](O)c4ccccc4-c4ccc(Cl)cc4)CC3)cc2)cc1S(=O)(=O)C(F)(F)F [AZD4320] + CN(C)CCCOc1ccc(-c2ccc3ncc4c(c3c2)n(C2CCOCC2)c(=O)n4C)cn1 [AZD0156] (first compound max 1 µM, 7x7, partner max 1 µM)	0.963	0.192	0.184	0.274	0.0423	0.757	0.0929	0.276	0.194	0.291	0.0929	0.106	0.227	0.375	0.374	0.141	0.797	0.214	0.134	-0.0595
COc1cccc(OCCCN)c1-c1cc(Nc2cnc(C#N)cn2)n[nH]1 [Prexasertib] + C[C@@H]1COCCN1C2=NC(=NC(=C2)C3(CC3)[S@](=N)(=O)C)C4=C5C=CNC5=NC=C4 [AZD6738] (first compound max 1 µM, 7x7, partner max 10 µM)	0.968	0.555	0.832	0.895	0.531	0.91	0.797	0.965	0.648	0.935	0.991	0.575	0.698	0.686	0.954	0.682	0.26	0.72	0.793	-0.0583
C[C@@H]1COCCN1c1cc(C2([S@](C)(=N)=O)CC2)nc(-c2ccnc3[nH]ccc23)n1 [AZD6738] + O=C(c1cc(Cc2n[nH]c(=O)c3ccccc23)ccc1F)N1CCN(C(=O)C2CC2)CC1 [Olaparib] (first compound max 10 µM, 7x7, partner max 10 µM)	0.731	0.515	0.664	0.902	0.288	0.94	0.981	0.969	0.498	0.55	0.88	0.387	0.446	0.471	0.988	0.708	0.439	0.384	0.611	0.0171
CCN(CCO)CCCOc1ccc2c(Nc3cc(CC(=O)Nc4cccc(F)c4)[nH]n3)ncnc2c1 [AZD2811] + C=CCn1c(=O)c2cnc(Nc3ccc(N4CCN(C)CC4)cc3)nc2n1-c1cccc(C(C)(C)O)n1 [AZD1775] (first compound max 1 µM, partner max 1 µM)	0.761	0.445	0.472	0.896	0.177	0.885	0.51	0.821	0.161	0.651	0.771	0.369	0.62	0.33	0.981	0.727	0.467	0.311	0.423	-0.0449
COc1nnc2ccc(N3CCC(c4ccc(OCCN5CCN(C)C(=O)[C@H]5C)cc4)CC3)nn12 [AZD5153] + CCN(CCO)CCCOc1ccc2c(Nc3cc(CC(=O)Nc4cccc(F)c4)[nH]n3)ncnc2c1 [AZD2811] (first compound max 1 µM, 7x7, partner max 1 µM)	0.501	0.487	0.467	0.82	0.0898	0.952	0.445	0.597	0.631	0.693	0.592	0.261	0.593	0.564	0.915	0.88	0.366	0.404	0.585	-0.0785
CC(=O)Nc1cccc(-n2c(=O)n(C3CC3)c(=O)c3c(Nc4ccc(I)cc4F)n(C)c(=O)c(C)c32)c1 [Trametinib] + Cc1nc(-c2cn3c(n2)-c2ccc(-c4cnn(C(C)(C)C(N)=O)c4)cc2OCC3)n(C(C)C)n1 [Taselisib] (first compound max 1 µM, 7x7, partner max 10 µM)	0.694	0.89	0.518	0.924	0.481	1	0.943	0.76	0.778	0.97	0.936	0.669	0.497	0.769	0.661	0.887	0.665	0.988	0.916	0.0925
